In patent publication US5538950A, “Endothelin antagonists and their preparation” (Fujisawa Pharmaceutical Co., Ltd., priority 1991, dated 1996):
Counter-ions that a name gives are not always drawn.

Test system: endothelin receptor (crude receptor membrane preparation of porcine aorta)
Assay: Radioligand binding assay: 125I-endothelin-1 binding to porcine aorta membrane
Conditions: ^125 I-Endothelin-1 1.67×10^-11 M, room temperature, 60 minutes, read-out: Effect on specific binding of ^125 I-endothelin-1 in porcine aorta membrane, IC50
Method: Radioligand binding assay:
(a) Crude receptor membrane preparation:
Porcine aorta was purchased from Pel-Freez Biologicals (U.S.A.) and stored at -80° C. until use.
Porcine aorta (50 g) was thawed and dissected free from fatty tissue, minced with scissors and then homogenized with a polytron (Brinkmann PT-20, maximal speed for 3×10 sec) in 100 ml buffer (0.25M sucrose, 10 mM Tris-HCl, 0.1 mM EDTA).
The homogenate was centrifuged at 10,000 g for 20 minutes at 4° C.
The supernatant, containing the plasma membrane fraction, was centrifuged at 100,000 g for 60 minutes at 4° C., and then resultant pellets were referred to as crude membrane fractions.
The pellets were resuspended in 25 ml of binding assay buffer (50 mM Tris-HCl, 100 mM NaCl, 5 mM MgCl2, 1.5 μg/ml phenylmethylsulfonyl fluoride (PMSF), 120 μg/ml bacitracin, 12 μg/ml leupepcin, 6 μg/ml chymostain, 0.1% bovine serum albumin (BSA), pH 7.5).
The aorta membrane fractions were stored at -80° C. until use.
(b) ^125 I-endothelin-1 binding assay: […]
After incubation, the incubation mixture were filtered through Glass-fiber GF/C filter (pretreated with 0.1% polyethylene imine for 3 hours prior to use) using cell harvester (Brandel M-24S). […] The filters were counted in a gamma counter (Packard Auto Gamma Model 5650).

IC50: 5.2 nM
SMILES: CC(C)C[C@H](CC(=O)N1CCCCC1)C(=O)N[C@H](Cc1cn(C)c2ccccc12)C(=O)N[C@H](Cc1ccccn1)C(N)=O [Compound A, [(2R)-2-(Piperidinocarbonyl)methyl-4-methylvaleryl]-D-TrP(Me)-D-Pya-NH2 hydrochloride]
